Data published in article PMC10522709, “Rational design and characterization of cell-selective antimicrobial peptides based on a bioactive peptide from Crocodylus siamensis hemoglobin” (Scientific Reports, 2023).
Ends that are not written are not given here.

How the values were obtained:
[1] = system: EcoRI-digested Lambda (λ) DNA; assay: Gel retardation assay; type: binding; details: 200 ng λ DNA, peptide 4, 6, 8, 16 µg/mL, 60 min, room temperature, 0.8% agarose gel
Experimental: DNA used for this test was Lambda (λ) DNA, which had been digested with EcoRI into fragments sized 21,226, 7421, 5804, 5643, 4878 and 3530 bp (Thermo Fisher Scientific, Waltham, MA, USA). The gel retardation assay was run by mixing 200 ng of λ DNA with different concentrations of IL15.3 at 1 × MIC (4 µg/mL), 2 × MIC (8 µg/mL), 4 × MIC (16 µg/mL) and MBC (6 µg/mL) of E. coli. The mixtures were incubated for 60 min at room temperature and subjected to electrophoresis on a 0.8% agarose gel. Gel was then stained with ViSafe Red gel stain (Vivantis, Selangor Darul Ehsan, Malaysia). Subsequently, DNA bands were photographed using G-box gel documentation (Syngene, USA).

[2] = system: human keratinocyte cells (HaCaT); type: cell-based; details: 24 h
Experimental: (§1) Human peripheral blood mononuclear cells (PBMC), African green monkey kidney cells (Vero), human keratinocyte cells (HaCaT) and mouse preadipocytes (3T3-L1) were used to evaluate the cytotoxicity of peptides by the MTT assay. PBMCs were isolated using Ficoll medium (GE Healthcare, Uppsala, Sweden) as described by Jangpromma et al.[28]. The PBMCs were then cultured in RPMI 1640, while Vero, HaCaT and 3T3-L1 cells were cultured in DMEM. All culture mediums were supplemented with 10% heat-inactivated fetal bovine serum (FBS) and 1% antibiotic:antimycotic (Gibco, USA). The cells were cultured at 37 °C with 5% CO2/95% relative humidity. After that, PBMC (2 × 10^6 cells/well), Vero (1 × 10^4 cells/well), HaCaT (1 × 10^4 cells/well) and 3T3-L1 (1 × 10^4 cells/well) were individually seeded into 96-well plate and cultured at 37 °C overnight. Next, two-fold serially diluted peptides (3.13–200 μg/mL) were added to the cell culture. After incubation in 5% (v/v) CO2 incubator for 24 h, the medium culture was removed and MTT solution ([…] final concentration in fresh medium culture) was added to the cells and incubated for 30 min. Thereafter, the medium was removed and DMSO (100 µL) was added to each well to dissolve the formazan crystals. The optical density at 570 nm was determined using a microplate reader (ALLSHENG, Zhejiang, China). The cytotoxicity of IL15.3 against Vero, HaCaT and 3T3-L1 cells in the absence of FBS was also measured by the MTT assay to confirm the peptide is not sequestered by proteins in the serum causing artificially low cytotoxicity against eukaryotic cells.
(§2) Cell viability was determined using the equation: %cellviability=OD570ofsample/OD570ofuntreatedcontrol×100
(§3) GraphPad Prism8 (San Diego, CA, USA) was used to calculate IC50 values using a non-linear regression model.

[3] = system: human peripheral blood mononuclear cells (PBMC); type: cell-based; details: 24 h
Experimental: as §1, §2, §3

IKHWKKVWKHAKKVL [IL15.3]
interaction with DNA (gel retardation) [1]: binds to λ DNA fragments | IC50 HaCaT [2]: >200 mg/L | IC50 PBMC [3]: >200 mg/L
